Each structure is given as a SMILES string. In brackets after ≈: the same amount, converted by molar mass. Read-outs that look alike come from different tables or passages of the source. Bridge positions count the residues as written; N and C are the ends. Peptide text beside a SMILES is read from it. Where only a bound is given, the exact number is not on record here.

The MBC is the smallest concentration meeting the test's criterion for killing. A lower MBC goes with more potent killing. One may read the MIC as the smallest concentration in the dilution series that meets the test's criterion for growth inhibition. Read a low MIC as greater potency.

Common to all, as to format: cell-based
The subject of experiment [1] is Pseudomonas aeruginosa: ATCC 10148. As for the experimental part: (§1) Microtiter broth dilution assays. HP2, HP3, and HP5 peptides are comprised of novel sequences that have not yet been described in the AMP literature. A common method for establishing antimicrobial activity of peptides is to perform microtiter broth assays. Microtiter broth dilution methods were implemented for determination of the minimum inhibitory concentration (MIC) and minimum bactericidal concentration (MBC). HP3 and HP5 were tested in addition to Ranatuerin-1/HP4 peptide as a positive control. HP2 could not be tested because multiple peptide synthesis attempts failed. The human cathelicidin, LL-37^30 was used as an additional positive control, and an unrelated similarly sized cationic peptide from the T. pallidum protein Tp0751 was used as a negative control. The potential AMPs were tested against bacteria representative of all three types of known cell envelope (Gram-positive, negative, and the complex and unique mycobacterial cell wall/envelope), given that a major mechanism used by AMPs is cell wall/membrane targeting.
(§2) Microtiter broth dilution assays. To test for antimicrobial activity, HP3, HP4/Ranatuerin-1, and HP5, peptides were synthesized by GenScript (Piscataway, New Jersey, USA). HP2 was not tested because the service provider was unable to synthesize this peptide despite multiple attempts. An unrelated, similarly-sized peptide from the Treponema pallidum protein Tp0751^55 was used as a negative control and the human cathelicidin, LL-37^30, was included as a positive control. Peptides were dissolved in filter-sterilized ultrapure water and tested for sterility by plating on non-selective agar plates followed by a 48 h incubation at 37° C. Two-fold serial dilutions of each peptide were prepared to obtain a series corresponding to ten times the required testing concentrations (2560, 1280, 640, 320, 160, 80, 40, 20, 10, and 5 μg/mL)^29.
(§3) Microtiter broth dilution methods were implemented for determination of the minimum inhibitory concentration (MIC) and minimum bactericidal concentration (MBC) of the four putative AMPs and the negative control peptide using procedures adapted from the R.E.W. Hancock Laboratory for cationic AMPs^29 and the CLSI methods for dilution antimicrobial susceptibility tests^56.
(§4) To assess antimicrobial activity across a diverse range of bacterial species, colonies were cultured overnight on Mueller Hinton agar plates (MHA; +5% sheep blood for S. pyogenes)^56 from frozen glycerol stock. Bacteria tested include Gram-negative rods (Escherichia coli: ATCC 9723H; Pseudomonas aeruginosa: ATCC 10148), Gram-positive cocci (Staphylococcus aureus: ATCC 6538P; Streptococcus pyogenes: unknown strain, hospital isolate), and Mycobacterium smegmatis (MC^2155; classified as neither Gram-positive nor Gram-negative). Bacterial suspensions were prepared by placing 3-5 morphologically similar colonies from the grown plate into sterile glass culture tubes containing 2 mL of Mueller Hinton Broth (MHB; +5% lysed horse blood for S. pyogenes) 56. Microbial inoculums from bacterial suspensions were prepared through a spectrophotometric adjustment of turbidity to 0.08-0.1 at 600 nm to achieve a turbidity equivalent to that of a 0.5 McFarland standard (1-2×10^8 CFU/mL)^29. The standardized bacterial inoculums were then diluted in MHB to obtain final cell densities of approximately […].
(§5) Ninety-six-well microtiter plates (Fisher Cat. No. CS003790; Nepean, Ontario, Canada) were prepared with 100 μL of E. coli, P. aeruginosa, S. aureus, S. pyogenes, or M. smegmatis bacterial suspension (5×10^5 CFU/mL) dispensed into each well of columns 1 through 11. Eleven microliters of the 10×AMP dilution series for all four peptides were added to each well from column 1 (2560 μg/mL) to column 10 (5 μg/mL) in all plates. Column 11 functioned as a positive control for bacterial growth in the absence of AMPs. Column 12 in each plate contained 100 μL of MHB as a sterility control (+5% lysed horse blood for S. pyogenes)^56. […]

Experiment [2] relates to Streptococcus pyogenes: unknown strain, hospital isolate. The settings on record: for inhibitory or bacteriostatic activity: S. pyogenes; for MBC / MIC: unknown strain, hospital isolate. As for the experimental part:
as §1, §2, §3, §4, §5

For experiment [3], the system named is Escherichia coli: ATCC 9723H. As for the experimental part: as §1, §2, §3, §4, §5
Experiment [4] concerns Staphylococcus aureus: ATCC 6538P. Here is the method: as §1, §2, §3, §4, §5
The subject of experiment [5] is Mycobacterium smegmatis (MC^2155). As for the experimental part: as §1, §2, §3, §4, §5

Consider `CC(C)C[C@H](NC(=O)[C@H](CS)NC(=O)[C@@H]1CCCN1C(=O)[C@H](CCCCN)NC(=O)[C@H](CCCNC(=N)N)NC(=O)[C@@H]1CCCN1C(=O)[C@H](Cc1ccccc1)NC(=O)[C@H](CO)NC(=O)[C@H](CCCCN)NC(=O)[C@@H](NC(=O)[C@H](Cc1c[nH]c2ccccc12)NC(=O)[C@H](CS)NC(=O)CNC(=O)[C@H](CO)NC(=O)[C@H](CC(C)C)NC(=O)[C@@H](N)CO)[C@@H](C)O)C(=O)N[C@@H](CCCNC(=N)N)C(=O)N[C@@H](CC(N)=O)C(=O)N[C@@H](CCCNC(=N)N)C(=O)O` [HP3, SLSGCWTKSFPRKPCLRNR] (H-SLSGCWTKSFPRKPCLRNR-OH; N-terminus and C-terminus assumed), for which the MBC in experiment [1] (ATCC 10148), in experiment [2], in experiment [3] (ATCC 9723) and in experiment [4] (ATCC 6538) was more than 256 µg/mL each time. The MIC in experiment [1] (ATCC 10148), in experiment [2], in experiment [3] (ATCC 9723) and in experiment [4] (ATCC 6538) was more than 256 µg/mL in each case. Further, the “inhibitory or bacteriostatic activity” value in experiment [1] (P. aeruginosa), in experiment [2], in experiment [3] (E. coli) and in experiment [4] (S. aureus) was “no effect” each time.
On to `CC[C@H](C)[C@H](NC(=O)[C@H](CCCCN)NC(=O)[C@H](CS)NC(=O)[C@H](C)NC(=O)[C@@H](NC(=O)[C@H](Cc1ccccc1)NC(=O)CNC(=O)[C@H](CC(C)C)NC(=O)CNC(=O)[C@@H](NC(=O)[C@H](CCCCN)NC(=O)CNC(=O)[C@H](CC(C)C)NC(=O)[C@H](CC(N)=O)NC(=O)[C@H](CCCCN)NC(=O)[C@H](CC(C)C)NC(=O)[C@@H](NC(=O)[C@H](CO)NC(=O)[C@H](CC(C)C)NC(=O)[C@H](CCSC)NC(=O)[C@@H](N)CO)C(C)C)C(C)C)C(C)C)C(=O)N[C@@H](CC(N)=O)C(=O)N[C@@H](CCCCN)C(=O)N[C@@H](CCC(N)=O)C(=O)N[C@@H](CS)C(=O)O` [HP4] (H-SMLSVLKNLGKVGLGFVACKINKQC-OH; N-terminus and C-terminus assumed), for which the MBC in experiment [1] (ATCC 10148) and in experiment [2] was more than 256 µg/mL in each case. The MIC was more than 256 µg/mL in experiment [1] (ATCC 10148); more than 256 µg/mL in experiment [2]; 48 µM in experiment [3] (ATCC 9723); 128 µg/mL in experiment [3] (E. coli, listed as H4); 97 µM in experiment [4] (ATCC 6538); 256 µg/mL in experiment [4] (S. aureus, listed as H4). Besides, the “inhibitory or bacteriostatic activity” value in experiment [1] (P. aeruginosa) and in experiment [2] was “no effect” each time.
`CC[C@H](C)[C@H](NC(=O)[C@H](CC(C)C)NC(=O)[C@H](CCCCN)NC(=O)[C@H](CCCCN)NC(=O)[C@H](CS)NC(=O)[C@H](CCCNC(=N)N)NC(=O)[C@H](CCC(=O)O)NC(=O)[C@@H](NC(=O)[C@@H]1CCCN1C(=O)[C@@H](NC(=O)[C@H](CCC(=O)O)NC(=O)[C@H](CO)NC(=O)[C@H](CS)NC(=O)[C@H](CCC(=O)O)NC(=O)[C@H](CCC(=O)O)NC(=O)[C@H](CCCCN)NC(=O)[C@@H](NC(=O)[C@H](CC(C)C)NC(=O)[C@H](CCC(=O)O)NC(=O)[C@H](CCC(=O)O)NC(=O)[C@H](CC(C)C)NC(=O)[C@H](C)NC(=O)[C@H](CCCNC(=N)N)NC(=O)[C@H](CC(C)C)NC(=O)[C@H](CC(N)=O)NC(=O)[C@H](CO)NC(=O)[C@@H]1CCCN1C(=O)[C@@H](N)CC(N)=O)C(C)C)[C@@H](C)CC)C(C)C)C(=O)N[C@@H](Cc1ccc(O)cc1)C(=O)NCC(=O)N[C@@H](Cc1ccc(O)cc1)C(=O)N[C@@H](CCCNC(=N)N)C(=O)N[C@@H](CCCCN)C(=O)O` [HP5] (H-NPSNLRALEELVKEECSEIPVERCKKLIYGYRK-OH; N-terminus and C-terminus assumed): the MBC in experiment [1] (ATCC 10148), in experiment [2], in experiment [3] (ATCC 9723) and in experiment [4] (ATCC 6538) was more than 256 µg/mL each time. Besides, the MIC in experiment [1] (ATCC 10148), in experiment [2], in experiment [3] (ATCC 9723) and in experiment [4] (ATCC 6538) was more than 256 µg/mL each time. Besides, the “inhibitory or bacteriostatic activity” value in experiment [1] (P. aeruginosa), in experiment [2], in experiment [3] (E. coli) and in experiment [4] (S. aureus) was “no effect” each time. Moreover, in experiment [5] (M. smegmatis), the “bacteriostatic and bacteriocidal activity” value was “weak bacteriostatic and bacteriocidal activity”.
Regarding `CC[C@H](C)[C@H](NC(=O)[C@H](CCCCN)NC(=O)[C@H](CCC(=O)O)NC(=O)[C@H](CCCCN)NC(=O)[C@H](CO)NC(=O)[C@H](CCCCN)NC(=O)[C@H](CCCNC(=N)N)NC(=O)[C@H](Cc1ccccc1)NC(=O)[C@H](Cc1ccccc1)NC(=O)[C@H](CC(=O)O)NC(=O)CNC(=O)[C@H](CC(C)C)NC(=O)[C@@H](N)CC(C)C)C(=O)NCC(=O)N[C@@H](CCCCN)C(=O)N[C@@H](CCC(=O)O)C(=O)N[C@@H](Cc1ccccc1)C(=O)N[C@@H](CCCCN)C(=O)N[C@@H](CCCNC(=N)N)C(=O)N[C@H](C(=O)N[C@H](C(=O)N[C@@H](CCC(N)=O)C(=O)N[C@@H](CCCNC(=N)N)C(=O)N[C@H](C(=O)N[C@@H](CCCCN)C(=O)N[C@@H](CC(=O)O)C(=O)N[C@@H](Cc1ccccc1)C(=O)N[C@@H](CC(C)C)C(=O)N[C@@H](CCCNC(=N)N)C(=O)N[C@@H](CC(N)=O)C(=O)N[C@@H](CC(C)C)C(=O)N[C@H](C(=O)N1CCC[C@H]1C(=O)N[C@@H](CCCNC(=N)N)C(=O)N[C@H](C(=O)N[C@@H](CCC(=O)O)C(=O)N[C@@H](CO)C(=O)O)[C@@H](C)O)C(C)C)[C@@H](C)CC)C(C)C)[C@@H](C)CC` [LL37 + ve_AcOH, reference compound], in experiment [1] (P. aeruginosa), the MBC is more than 256 µg/mL and the MIC was more than 256 µg/mL.
As for `CC[C@H](C)[C@H](NC(=O)[C@H](Cc1ccccc1)NC(=O)[C@@H]1CCCN1C(=O)[C@H](CC(C)C)NC(=O)[C@@H](N)Cc1ccccc1)C(=O)N[C@@H](C)C(=O)N[C@@H](CCCNC(=N)N)C(=O)N[C@@H](CC(C)C)C(=O)N[C@@H](C)C(=O)N[C@@H](C)C(=O)N[C@@H](CCCCN)C(=O)N[C@H](C(=O)N[C@@H](Cc1ccccc1)C(=O)N1CCC[C@H]1C(=O)N[C@@H](CO)C(=O)N[C@H](C(=O)N[C@H](C(=O)N[C@H]1CSSC[C@@H](C(=O)O)NC(=O)[C@H](CCCCN)NC(=O)[C@H](CCCCN)NC(=O)[C@H]([C@@H](C)O)NC(=O)[C@H](C(C)C)NC(=O)[C@H](CO)NC1=O)[C@@H](C)CC)[C@@H](C)CC)C(C)C` [Peptide R4] (H-FLPFIARLAAKVFPSIICSVTKKC-OH; disulfide 18-24; N-terminus and C-terminus assumed), the minimum bactericidal concentration (MBC) in experiment [1] (ATCC 10148) is more than 256 µg/mL; in experiment [5] (Mycobacterium (MC^2155)), 4 µg/mL (≈ 1.51 µM); in experiment [3] (ATCC 9723), 16 µg/mL (≈ 6.03 µM); in experiment [4] (ATCC 6538), 4 µg/mL (≈ 1.51 µM). Moreover, the MIC in experiment [1] (ATCC 10148) is more than 256 µg/mL; in experiment [5] (Mycobacterium (MC^2155)), 4 µg/mL (≈ 1.51 µM); in experiment [3] (ATCC 9723) it was 16 µg/mL; in experiment [4] (ATCC 6538), 4 µg/mL.

Values taken from US12280090B2, “Antimicrobial peptides” (priority 2018, dated 2025).
